Assay results taken from patent US20250032624A1, “SMALL MOLECULE DEGRADATION METHODS FOR TREATING ALS/FTD” (University of Florida Research Foundation, Incorporated, priority 2021, published 2025).

What was measured:
r(G4C2)8 = experiment: In vitro RNase L-mediated cleavage of 32P-labeled r(G4C2)8, gel analysis; assay type: biochemical; conditions: 10 μM and 20 μM compound, constant RNase L
Description: The 5′ end of r(G4C2)8 (SEQ ID NO: 1) (a model of r(G4C2)^exp) was radiolabeled with ^32P and purified on a denaturing polyacrylamide gel (15%), as previously described^31,32. After purification, labeled RNA (25 nM) was folded in 1×RNase L buffer (25 mM Tris-HCl, pH 7.4, and 100 mM NaCl) for 5 minutes at 95° C. The folded RNA was cooled to room temperature and 2-mercaptoethanol (7 mM final concentration), ATP (50 μM final concentration), and MgCl2 (10 mM final concentration) were added to the solution. Dilutions of compound in the folded RNA solution were then made and incubated for 15 minutes at room temperature. After the incubation, RNase L was added to a final concentration 50 nM. Samples were incubated at 37° C. overnight. Cleavage fragments were then separated on a denaturing 15% polyacrylamide gel, imaged by autoradiography (Typhoon FLA 9500), and quantified using the QuantityOne software (BioRad). All experiments were performed in duplicate.

[1] = system: poly(GP), poly(GA) and TDP-43 inclusions; experiment: Immunohistochemistry of cortex slices of +/+PWR500 mice; assay type: in vivo, mouse; conditions: IHC
Description: A total of 20 age- and gender-matched mice (12 +/+PWR500 [5 Male and 7 Female] and 8 WT [4 Male and 4 Female]), ranging from 18-21 weeks old were used in therapeutic efficacy studies (Table 4). Mice were treated with a single bolus injection of 33 nmol of compound 2 formulated in 1% (v/v) DMSO/99% water, administered by an intracerebroventricular injection (ICV). Three weeks post injection, mice were euthanized, and tissue was harvested for study.
Postmortem brain tissue was harvested and sliced along the sagittal plane at the midline. The right hemisphere was stored for 48 hours in 10% neutral buffered formalin. Tissue processing, embedding and sectioning were then performed by the Scripps Florida Histology Core. Formalin-fixed tissue was processed on a Sakura Tissue-Tek VIP 5 paraffin processor. Tissue was first embedded in paraffin, sectioned at 4 μm, and then mounted on positively charged slides. Slides were stained with primary antibody (see below) using the Leica BOND-MAX platform. Slides were then subjected to the Leica Refine Detection Kit containing the secondary polymer, DAB chromagen, and the counterstain. Slides were dehydrated in graded alcohols and cleared in xylene, before being cover slipped with a permanent mounting medium (Cytoseal 60; Thermo Scientific).

d(G4C2)8 = experiment: Affinity by MST, DNA control d(G4C2)8; assay type: binding; conditions: d(G4C2)8, concentrations up to 20 μM
Description: Affinity measurements were performed by MST using a Monolith NT.115 system (NanoTemper Technologies) with 5′-Cy5-labeled r(G4C2)8 (SEQ ID NO: 1), 5′-Cy5-labeled d(G4C2)8 (SEQ ID NO: 1), and 5′-Cy5-labeled base pair control r(G2C2)4GAAA(G2C2)4 (SEQ ID NO: 49). All oligos were deprotected according to the manufacturer's recommended protocol. Samples were prepared as previously described^30. Briefly, RNA or DNA (5 nM) was folded in 1×MST Buffer (8 mM Na2HPO4, 185 mM NaCl, 1 mM EDTA) by heating at 95° C. for 5 minutes and slowly cooling to room temperature. Tween-20 was then added to a final concentration of 0.05% (v/v). Serial dilutions of compound in 1×MST Buffer containing 5 nM folded nucleic acid were then carried out to yield the desired compound concentrations. Samples were incubated for 90 minutes at room temperature and then loaded into premium capillaries (NanoTemper Technologies). The following parameters were used on the Monolith NT.115 system: 10% LED, 20-80% MST power, Laser-On time=30 s, Laser-Off time=5 seconds. Fluorescence was detected using excitation wavelengths of 605-645 nm and emission wavelengths of 680-685 nm. The resulting data were analyzed by thermophoresis analysis and fit using the quadratic binding equation in the MST analysis software (NanoTemper Technologies). The dissociation constant was determined using Equation 1. […]

C9orf72 intron 1 = experiment: C9orf72 transcript RT-qPCR in LCLs from healthy donors; assay type: cell-based, human
Description: Measuring Levels of C9orf72 and C9orf72 Variants by RT-qPCR. LCLs and iPSCs were seeded in 6-well plates (˜10^6 cells in 2 mL of Basal medium) and incubated overnight at 37° C. with 5% CO2. LCLs were then treated with compound for 4 days without media changes; patient-derived iPSCs were seeded at ˜80% confluency and treated, as described above. Treatment with either a G4C2-ASO or Control-ASO (100 nM) was used as a control. ASO transfection was achieved using Lipofectamine RNAiMax (Life Technologies), following the manufacturer's protocol. After 4 days of treatment (with either compound or ASO), total RNA was extracted using the Quick-RNA Miniprep Kit (Zymo Research). RNA was quantified via Nanodrop and ˜1 μg of total RNA was reverse transcribed using qScript (Quantbio), according to the manufacturer's guidelines. RT-qPCR was performed on a QuantStudio™ Real-Time PCR Instrument (Applied Biosystems) using Power SYBR Green Master Mix (Applied Biosystems). Expression levels of mRNAs were normalized to GAPDH. See Table 2 for a list of primers used.

In the case of `CCOC(=O)C1=C(Nc2ccccc2)S/C(=C\c2ccc(OCCOCCOCCOCCNC(=O)CCCOc3ccc4c(c3)c3cc5c(C(=O)N[C@H](C)CN(C)C)nccc5c(C)c3n4C)c(O)c2)C1=O` [ALS Compound Formula I], the “cleavage of r(G4C2)8” value (r(G4C2)8) is reported as “significant cleavage”, the TDP-43 inclusions [1] is reported as “significantly reduced” and the “poly(GA) inclusions” value [1] is reported as “significantly reduced”. For the same molecule, the “poly(GP) inclusions” value [1] was “significantly reduced”, the saturable binding (d(G4C2)8) was “No saturable binding” and the “effect on C9orf72 intron 1 levels” value (C9orf72 intron 1) was “did not reduce”.
